Measurements: the NIST ThermoML archive (doi:10.1021/acs.jced.6b00128)
Numbers after ± are expanded uncertainties.

Conditions: Liquid, Falling or rolling sphere viscometry

CCCCC(CC)COC(=O)c1ccc(C(=O)OCC(CC)CCCC)c(C(=O)OCC(CC)CCCC)c1 (stereo not drawn) [tris(2-ethylhexyl) trimellitate]
viscosity (315.1 K, 8710 kPa): 92.64 ± 3.6 mPa·s | viscosity (315.1 K, 23090 kPa): 125 ± 5.5 mPa·s | viscosity (315.1 K, 36550 kPa): 163.5 ± 8.2 mPa·s | viscosity (315.1 K, 69620 kPa): 301.3 ± 20 mPa·s | viscosity (315.1 K, 71420 kPa): 310.8 ± 20 mPa·s | viscosity (315.1 K, 104200 kPa): 540.6 ± 44 mPa·s | viscosity (315.1 K, 138800 kPa): 934 ± 93 mPa·s | viscosity (347.1 K, 9180 kPa): 22.72 ± 0.97 mPa·s | viscosity (347.1 K, 22490 kPa): 28.88 ± 1.3 mPa·s | viscosity (347.1 K, 36420 kPa): 36.54 ± 1.7 mPa·s | viscosity (347.1 K, 70160 kPa): 62.43 ± 3 mPa·s | viscosity (347.1 K, 70370 kPa): 62.32 ± 3 mPa·s | viscosity (347.1 K, 104100 kPa): 101.1 ± 5.5 mPa·s | viscosity (347.1 K, 138500 kPa): 159.1 ± 10 mPa·s | viscosity (347.1 K, 173500 kPa): 244.9 ± 14 mPa·s | viscosity (347.1 K, 219900 kPa): 420.8 ± 31 mPa·s | viscosity (387.5 K, 11780 kPa): 7.262 ± 0.27 mPa·s | viscosity (387.5 K, 22080 kPa): 8.542 ± 0.32 mPa·s | viscosity (387.5 K, 36110 kPa): 10.48 ± 0.4 mPa·s | viscosity (387.5 K, 70650 kPa): 16.6 ± 0.66 mPa·s | viscosity (387.5 K, 72750 kPa): 17.21 ± 0.67 mPa·s | viscosity (387.5 K, 104700 kPa): 25.32 ± 1 mPa·s | viscosity (387.5 K, 140100 kPa): 37.04 ± 1.6 mPa·s | viscosity (387.5 K, 173400 kPa): 51.68 ± 2.3 mPa·s | viscosity (387.5 K, 215400 kPa): 77.27 ± 3.1 mPa·s | viscosity (428.6 K, 9400 kPa): 3.143 ± 0.11 mPa·s | viscosity (428.6 K, 21670 kPa): 3.632 ± 0.12 mPa·s | viscosity (428.6 K, 36940 kPa): 4.46 ± 0.15 mPa·s | viscosity (428.6 K, 70470 kPa): 6.643 ± 0.23 mPa·s | viscosity (428.6 K, 105400 kPa): 9.7 ± 0.33 mPa·s | viscosity (428.6 K, 139500 kPa): 13.2 ± 0.46 mPa·s | viscosity (428.6 K, 172300 kPa): 17.63 ± 0.62 mPa·s | viscosity (428.6 K, 203200 kPa): 22.51 ± 0.72 mPa·s | viscosity (428.6 K, 237600 kPa): 29.74 ± 0.96 mPa·s | viscosity (477.8 K, 11620 kPa): 1.649 ± 0.053 mPa·s | viscosity (477.8 K, 23680 kPa): 1.916 ± 0.062 mPa·s | viscosity (477.8 K, 37690 kPa): 2.232 ± 0.072 mPa·s | viscosity (477.8 K, 37760 kPa): 2.235 ± 0.072 mPa·s | viscosity (477.8 K, 70980 kPa): 3.227 ± 0.11 mPa·s | viscosity (477.8 K, 105500 kPa): 4.336 ± 0.14 mPa·s | viscosity (477.8 K, 106000 kPa): 4.336 ± 0.14 mPa·s | viscosity (477.8 K, 139300 kPa): 5.743 ± 0.19 mPa·s | viscosity (477.8 K, 174200 kPa): 7.352 ± 0.24 mPa·s | viscosity (477.8 K, 196800 kPa): 8.536 ± 0.29 mPa·s | viscosity (477.8 K, 219300 kPa): 10.02 ± 0.32 mPa·s | viscosity (477.8 K, 240800 kPa): 11.62 ± 0.39 mPa·s | viscosity (527.4 K, 10410 kPa): 1.015 ± 0.033 mPa·s | viscosity (527.4 K, 23110 kPa): 1.161 ± 0.037 mPa·s | viscosity (527.4 K, 36430 kPa): 1.333 ± 0.043 mPa·s | viscosity (527.4 K, 69910 kPa): 1.79 ± 0.058 mPa·s | viscosity (527.4 K, 105200 kPa): 2.466 ± 0.08 mPa·s | viscosity (527.4 K, 105700 kPa): 2.469 ± 0.08 mPa·s | viscosity (527.4 K, 139000 kPa): 3.097 ± 0.1 mPa·s | viscosity (527.4 K, 172900 kPa): 3.835 ± 0.13 mPa·s | viscosity (527.4 K, 200700 kPa): 4.578 ± 0.15 mPa·s | viscosity (527.4 K, 201600 kPa): 4.601 ± 0.15 mPa·s | viscosity (527.4 K, 223700 kPa): 5.224 ± 0.17 mPa·s | viscosity (527.4 K, 241600 kPa): 5.761 ± 0.19 mPa·s
